These results are taken from PubChem BioAssay (NCI).

The structures appear in SMILES notation.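 Cells were grown in 96-well plates and exposed to each compound for 48 hours at five concentrations; endpoints were interpolated linearly between bracketing concentrations, or set to the highest concentration if not reached. Abbreviation: GI50, concentration required for 50% inhibition of growth. TGI is the concentration that stops growth completely.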

Experiment in all cases: growth of human tumour cells (NCI), 48 h
Test [1] concerns MOLT-4 leukemia.
In test [2] the test system is CCRF-CEM leukemia.
Test [3] has as its system NCI-H522 lung.
Test [4] has as its system SN12C renal.
The test system of test [5] is TK-10 renal.
Test [6] relates to NCI-H23 lung.
Test [7] has as its system CAKI-1 renal.
The test system of test [8] is A498 renal.
The subject of test [9] is T-47D breast.
Test [10] deals with BT-549 breast.

Take `COc1ccc(CNCCN2C(=O)c3ccc4c5c(ccc(c35)C2=O)C(=O)N(CCNCc2ccc(OC)c(OC)c2OC)C4=O)c(OC)c1OC`: the GI50 in [1] is 0.151 µM; in test [2], 0.273 µM; in test [3], 0.519 µM; in test [4] it was 0.0942 µM. Also, the TGI in test [1] was found to be 0.613 µM; in [2], 50 µM; in [3], 1.19 µM; in test [4], 0.207 µM.
In the case of `CN(C)c1ccc(/C=C(\C#N)C(=O)c2ccccc2)cc1Br`, the TGI in [5], in [1], in [2], in [6], in [7] and in test [3] was above 100 µM throughout. This molecule showed a TGI in test [4] above 100 µM.
For `CC(C)C(N=C1CC2CCC1(C(=O)Nc1ccccc1O)C2(C)C)c1ccccc1` (stereo not drawn), the TGI in test [5], in [1], in test [2], in test [6], in [8] and in test [7] was above 10 µM in each case. Besides, the TGI in [3] and in test [4] was above 10 µM each time.
Consider `O=C(C#Cc1ccccc1)Nc1ccccc1CC(c1c[nH]c2ccccc12)c1c[nH]c2ccccc12`, for which the TGI in test [5] is 96.6 µM; in [1], 34.2 µM; in test [2], 20 µM; in test [6], 37.1 µM; in test [7] it was above 100 µM; in test [3] it was 26.5 µM. In addition, the TGI in [4] was determined as 30 µM.
On to `CNC(=O)/C(C#N)=C(\N)N1CCCC1`, for which the TGI in [5], in test [9], in test [1], in test [2], in test [6] and in test [8] was above 100 µM in each case. The TGI in test [7], in test [3] and in [4] was above 100 µM each time.
`Cn1cnc([N+](=O)[O-])c1Sc1nnc(-c2ccc(Cl)cc2)n1C`: the TGI in test [5] turned out to be 31.6 µM; in [1] it was 66.1 µM; in [2] it was 22 µM; in test [6], 32.1 µM; in test [8], 81.8 µM; in [7], 29.7 µM. Also, the TGI in [3] was determined as 15.6 µM; in [4], 28.4 µM.
Turning to `COc1ccc(-c2oc(C=Nc3ccccc3)c([N+](=O)[O-])c2-c2ccc(OC)c(OC)c2)cc1OC`, the TGI in test [5], in test [1], in [6], in test [7], in [3] and in test [4] was above 100 µM in each case.
Regarding `O=C(Cn1cc(I)c(C(=O)NCC(O)CO)n1)NCC(O)CO` (stereo not drawn), the TGI in [5], in test [1], in test [2], in [6], in test [8] and in test [3] was above 100 µM throughout. In test [4], this molecule showed a TGI above 100 µM.
`CCC(/C(=N/NC(=O)C[N+](C)(C)C)c1ccccc1)C1OC(=O)c2ccccc21` (stereo not drawn): the TGI in test [5], in [1], in test [2], in test [6], in test [7] and in test [3] was above 100 µM throughout. In test [4], this molecule returned a TGI above 100 µM.
With `CC(=O)O[C@H]1C(=O)[C@@]2(C)C(C(OC(=O)c3ccccc3)[C@]3(O)CC(OC(=O)C(O)C(NC(=O)c4cccc(Cl)c4)c4ccccc4)C(C)=C1C3(C)C)[C@]1(OC(C)=O)CO[C@@H]1C[C@@H]2O` (stereo partly drawn), the TGI in test [5] was above 10 µM; in test [10], above 10 µM; in [1] it was above 10 µM; in test [2] it was 5.91 µM; in [6] it was above 10 µM; in test [7] it was above 10 µM. Also, the TGI in test [3] was 3.83 µM; in test [4], above 10 µM.
Turning to `C#CCn1c(=O)c2cc(OC)c(OC)cc2n(CC#C)c1=O`, the TGI in [5], in test [9], in test [1], in [2], in test [6] and in test [8] was above 10 µM throughout. Besides, the TGI in test [7], in test [3] and in test [4] was above 10 µM throughout.
For `CSCCC(NOC(=O)Cc1ccccc1)P(=O)(O)c1ccccc1` (stereo not drawn), the TGI in [5], in test [9], in [1], in test [2], in [6] and in test [7] was above 100 µM each time. The TGI in test [3] and in test [4] was above 100 µM in each case.
`CCOC1=C2N=C(C(CC)c3ccc(F)cc3)N=C2C(=O)c2ccccc21` (stereo not drawn): the TGI was 66.7 µM in [5]; above 86.2 µM in test [1]; above 100 µM in test [2]; 70.2 µM in [6]; 84.7 µM in test [7]; 76.7 µM in [3]. The molecule further returned a TGI in [4] above 66.7 µM.
Turning to `CCN(CC)CCNC(=O)C1COc2ccc(-c3cc(=O)c4ccccc4o3)cc2O1` (stereo not drawn), the TGI in test [1] came to 57.9 µM; in test [2] it was 68.6 µM; in [6], 60.3 µM; in test [8], 30.3 µM; in test [7] it was 43.3 µM; in [3] it was 32.5 µM. Further, in test [4], the TGI was 55.1 µM.
Regarding `O=C1C2Cc3ccccc3CN2C(=O)N1CN1CCCCC1` (stereo not drawn), the TGI in test [5], in [1], in test [2], in test [6], in test [8] and in [7] was above 100 µM in each case. Further, the TGI in test [3] and in [4] was above 100 µM each time.
Take `Nc1nc2c(nnn2C2C=C(CO)C(O)C2O)c(=O)[nH]1` (stereo not drawn): the TGI in test [5], in test [1], in test [2], in [6], in [8] and in test [7] was above 100 µM each time. Besides, the TGI in test [3] and in test [4] was above 100 µM in each case.
As for `Nc1nc(Cl)cc(OCC2(CO)CCCCC2)n1`, the TGI in [5], in test [1], in [2], in test [6], in test [8] and in test [3] was above 100 µM in each case. In addition, in test [4], the TGI was above 100 µM.
Turning to `c1ccc(C2SCc3nc4ccccc4n32)cc1` (stereo not drawn), the TGI in [5], in test [1], in test [2], in test [6], in test [8] and in test [7] was above 100 µM throughout. The TGI was 77.8 µM in [3] and above 100 µM in test [4].
On to `CN(C)CCNC(=O)c1cccc2c(NC(CCCN=C(N)N)C(=O)O)c3ccccc3nc12` (stereo not drawn), for which the TGI in [5] was above 100 µM; in [1], above 100 µM; in test [2], above 100 µM; in [6] it was 30.5 µM; in test [8] it was 61.3 µM; in test [3] it was 29.5 µM. Further, in test [4], the TGI was above 100 µM.
`CCN1CC2(CO)CCC(OC)C34C5CC6C(OC)CC(O)(C5C6OC)C(O)(C(OC)C23)C14` (stereo not drawn): the TGI in [1], in test [2], in [6], in test [8], in test [7] and in test [3] was above 375 µM in each case. For the same molecule, the TGI in test [4] is above 375 µM.
Turning to `O=C(O)C(=Cc1ccc(-c2ccc([N+](=O)[O-])cc2)o1)C(=O)O`, the TGI in [5], in [10], in test [1], in test [2], in test [6] and in [8] was above 100 µM in each case. Moreover, the TGI in test [7], in test [3] and in test [4] was above 100 µM in each case.
Consider `N#Cc1ccccc1C#C/C=C\C#Cc1ccccn1`, for which the TGI in test [5] is 96.2 µM; in test [9], 62.5 µM; in test [2], above 100 µM; in [6], 25.5 µM; in test [7] it was 83.1 µM; in test [3] it was 36.7 µM. In [4], the TGI amounted to 47.8 µM.
Consider `C#CCN(Cc1ccc2nc(-c3ccccc3)c(Cl)nc2c1)c1ccc(Cl)c(Cl)c1`, for which the TGI in test [5], in test [1], in test [2], in test [6], in test [8] and in [7] was above 100 µM each time. Moreover, the TGI in [3] and in test [4] was above 100 µM throughout.
`Cc1ccc(C2=C(c3ccccc3)C(O)(c3ccccc3)C(c3ccccc3)=C2c2ccc(C)cc2)cc1`: the TGI in test [5], in test [6], in test [8], in test [3] and in test [4] was above 100 µM in each case.
In the case of `CCCN1CCN(c2ccc3nc(-c4ccc5nc(-c6ccc(OCC)cc6)[nH]c5c4)[nH]c3c2)CC1`, the GI50 was 1.41 µM in [9]; 1.06 µM in test [1]; 0.629 µM in [2]; 1.3 µM in test [8]; 1.16 µM in [3]; above 100 µM in test [4]. Also, the TGI was 6.36 µM in [9]; 3.42 µM in test [1]; 3.58 µM in [2]; 3.01 µM in [8]; 3.46 µM in test [3]; above 100 µM in [4].
Consider `Cc1nc2cc3[nH]c4ccccc4c(=O)c3cc2s1`, for which the TGI in [5], in [1], in [2], in [6], in test [8] and in test [7] was above 100 µM in each case. In addition, the TGI in test [3] and in test [4] was above 100 µM each time.
In the case of `CCOC(=O)C(NS(=O)(=O)c1ccccc1)(C(F)(F)F)P(=O)(OCC(C)C)OCC(C)C` (stereo not drawn), the TGI in test [5], in [9], in [1], in [2], in [6] and in test [8] was above 100 µM each time. The TGI in test [7], in test [3] and in test [4] was above 100 µM each time.
`CCc1cc2c(cc1O)CC[C@@H]1[C@@H]2CC[C@]2(C)[C@@H](O)CC[C@@H]12`: the TGI in test [5] amounted to 60.9 µM; in test [9], 32.9 µM; in test [1], 20 µM; in test [2] it was 15 µM; in test [6] it was 20.6 µM; in test [8], 34.6 µM. In addition, the TGI in test [7] stood at 20.8 µM; in [3], 27.3 µM; in test [4], 20 µM. The GI50 in test [4] is 7.3 µM.
For `C=C1C(=O)OC2C=C(C)CC3C=C(CCC=C(C)CCC12)C(=O)O3` (stereo not drawn), the TGI came out at 159 µM in test [1]; 104 µM in [2]; 117 µM in test [6]; 167 µM in test [8]; 140 µM in test [7]; 57.9 µM in test [3]. The molecule further returned a TGI in [4] of 157 µM.
For `Nc1ccc2ncc(NCc3ccc(F)cc3)nc2c1`, the TGI in test [5], in test [1], in test [2], in test [6], in test [7] and in test [3] was above 100 µM in each case. The same molecule had a TGI in test [4] above 100 µM.
In the case of `C#CCN1C(=O)CN2C(Cl)(Cl)C2(c2ccccc2)c2cc(Cl)ccc21` (stereo not drawn), the TGI in test [5] was above 100 µM; in [1], 57.4 µM; in test [2] it was above 100 µM; in [6], above 100 µM; in [7] it was above 100 µM; in test [3] it was 75.2 µM. The molecule further displayed a TGI in test [4] above 100 µM.
In the case of `CC(=O)Nc1ccc(S(=O)(=O)Nc2cnc3ccccc3n2)cc1`, the TGI in test [5], in [1], in test [2], in test [6], in test [8] and in test [7] was above 100 µM each time. The TGI in [3] and in [4] was above 100 µM throughout.
